Measurements as given in patent US20160101109A1, “METHOD OF TREATING ARTHRITIS” (AbbVie Inc., priority 2007, published 2016).
“Also recorded” adds a separate entry of the source.

What was measured:
activated T lymphocytes = assay: mixed-lymphocyte reaction (MLR), mouse lymphocyte in vitro activation; assay type: cell-based
[1] = system: KLH antigen-specific T cells; assay: KLH immunization of mice, ex vivo restimulation of T cells; assay type: in vivo, mouse
Description: Mice were immunized with keyhole limpet hemocyanin (KLH) and treated with EXAMPLE A or vehicle control.

activated B lymphocytes = assay: lipopolysaccharide stimulation, mouse lymphocyte in vitro activation; assay type: cell-based
mouse ankles = assay: total bone volume by microcomputed tomography (μCT) of mouse ankles; assay type: in vivo; settings: 1.8-mm section of ankle, resolution 18 μm, FIG. 3
Method: Still also, total bone volumes were measured by microcomputed tomography (μCT) for a 1.8-mm tall section of mouse ankles from the base of the tibia to the tarsal/metatarsal joints at a resolution of 18 μm.

[2] = system: DBA/1J (H-2q) mice immunized with collagen; assay: mouse model of arthritis (collagen immunization, zymosan boost); assay type: in vivo; settings: EXAMPLE A 50 mg/kg per day, dexamethasone 1 mg/kg per day, 3 weeks, p<0.5 versus vehicle control
Method: Also, a standard mouse model of arthritis using DBA/1J (H-2q) mice immunized with collagen and boosted with zymosan 21 days later was used to induce disease. The mice were than treated with EXAMPLE A (50 mg/kg per day), vehicle (with no drug) and dexamethasone (1 mg/kg per day) at the first clinical sign of disease. The mice were then evaluated for mean arthritic score (MAS) and paw swelling for 3 weeks after treatment began.

CN(C)CC[C@H](CSc1ccccc1)Nc1ccc(S(=O)(=O)NC(=O)c2ccc(N3CCN(Cc4ccccc4-c4ccc(Cl)cc4)CC3)cc2)cc1[N+](=O)[O-] [EXAMPLE A, N-(4-(4-((4′-chloro(1,1′-biphenyl)-2-yl)methyl)piperazin-1-yl)benzoyl)-4-(((1R)-3-(dimethylamino)-1-((phenylsulfanyl)methyl)propyl)amino)-3-nitrobenzenesulfonamide]
proliferation of activated T lymphocytes in a mixed-lymphocyte reaction (MLR) (activated T lymphocytes): inhibited in a concentration-dependent manner | responsiveness of T cells spared after treatment ([1]; concavalin A stimulation): responsive to concavalin A | proliferation of KLH antigen-specific T cells on restimulation ex vivo ([1]; mice immunized with KLH and treated, versus vehicle control): significant inhibition of proliferation | proliferation of activated B lymphocytes upon lipopolysaccharide stimulation (activated B lymphocytes): inhibited in a concentration-dependent manner | mouse bone volume (mouse ankles): increase in mouse bone volume | paw swelling ([2]; FIG. 1): inhibition of arthritis; also recorded: reduction in mouse paw swelling | arthritis as assessed by MAS (mean arthritic score) ([2]; FIG. 2): inhibition of arthritis
